This is an account of results in US10654853B2, “Spiro-condensed pyrrolidine derivatives as deubiquitylating enzymes (DUB) inhibitors” (MISSION THERAPEUTICS LIMITED, priority 2016, dated 2020).

For this test, the target named is Cezanne 1 (Homo sapiens (Human), UniProt Q6GQQ9). As to the kind of experiment: Cezanne 1 biochemical IC50 assay (fluorescence polarisation, TAMRA labelled peptide linked to ubiquitin). The note with it: Cezanne 1 biochemical IC50 assay; 30 min pre-incubation, read after 2 hr at room temperature; read-out: IC50 range. In a few lines:
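FLAG-tagged Cezanne 1, expressed in HEK293T and FLAG-purified, was preincubated with compound for 30 min at room temperature in Tris pH 7.5 buffer with Tween 20, BSA and β-mercaptoethanol. Reactions were started with 50 nM TAMRA-peptide isopeptide-linked to ubiquitin. Fluorescence polarisation (ex 540/em 590 nm) was read immediately and after 2 h.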

Cezanne 1, sequence (Q6GQQ9 whole entry): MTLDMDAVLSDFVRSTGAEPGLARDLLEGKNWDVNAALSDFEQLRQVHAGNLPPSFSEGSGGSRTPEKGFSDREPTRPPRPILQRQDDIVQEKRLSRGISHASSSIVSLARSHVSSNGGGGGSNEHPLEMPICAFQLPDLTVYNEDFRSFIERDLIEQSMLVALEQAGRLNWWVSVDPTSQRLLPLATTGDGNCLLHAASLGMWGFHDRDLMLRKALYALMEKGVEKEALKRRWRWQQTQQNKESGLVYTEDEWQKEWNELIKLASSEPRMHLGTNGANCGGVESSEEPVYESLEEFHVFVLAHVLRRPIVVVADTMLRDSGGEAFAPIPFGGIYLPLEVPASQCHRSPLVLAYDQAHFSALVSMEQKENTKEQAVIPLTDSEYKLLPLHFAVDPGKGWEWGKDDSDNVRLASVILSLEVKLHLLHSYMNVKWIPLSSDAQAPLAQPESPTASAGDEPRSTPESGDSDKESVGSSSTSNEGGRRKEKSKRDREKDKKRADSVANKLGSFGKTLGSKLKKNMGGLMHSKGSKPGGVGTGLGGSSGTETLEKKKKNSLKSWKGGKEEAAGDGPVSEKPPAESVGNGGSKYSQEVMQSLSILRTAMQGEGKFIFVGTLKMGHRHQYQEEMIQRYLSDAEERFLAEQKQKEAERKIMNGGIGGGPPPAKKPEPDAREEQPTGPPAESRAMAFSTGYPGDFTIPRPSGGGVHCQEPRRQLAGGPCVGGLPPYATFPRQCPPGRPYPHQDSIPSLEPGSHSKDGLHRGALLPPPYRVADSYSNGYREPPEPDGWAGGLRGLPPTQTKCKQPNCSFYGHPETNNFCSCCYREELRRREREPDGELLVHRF

Regarding `Cc1ccc2[nH]ncc2c1-c1ccc2c(c1)CC1(CCN(C#N)C1)C(=O)N2` (centres unmarked) [Example 108, 6′-(5-Methyl-1H-indazol-4-yl)-2′-oxo-1′,4′-dihydro-2′H-spiro[pyrrolidine-3,3′-quinoline]-1-carbonitrile], the IC50 was in the range of 0.1 to 1 µM.
As for `N#CN1CCC2(Cc3cc(-c4cccc(NS(=O)(=O)C5CC5)c4)ccc3NC2=O)C1` (centres unmarked) [Example 109, N-(3-(1-Cyano-2′-oxo-1′,4′-dihydro-2′H-spiro[pyrrolidine-3,3′-quinolin]-6′-yl)phenyl)cyclopropanesulfonamide], the figure is 0.1 to 1 µM.
For `CN(C)C(=O)c1ccc(-c2ccc3c(c2)CC2(CCN(C#N)C2)C(=O)N3)cc1` (centres unmarked) [Example 110, 4-(1-Cyano-2′-oxo-1′,4′-dihydro-2′H-spiro[pyrrolidine-3,3′-quinolin]-6′-yl)-N,N-dimethylbenzamide], the IC50 lay in the range of 0.1 to 1 µM.
With `N#CN1CCC2(Cc3cc(-c4cncnc4)ccc3NC2=O)C1` (centres unmarked) [Example 111, 2′-Oxo-6′-(pyrimidin-5-yl)-1′,4′-dihydro-2′H-spiro[pyrrolidine-3,3′-quinoline]-1-carbonitrile], the IC50 was in the range of 0.1 to 1 µM.
As for `CC(=O)Nc1cccc(-c2ccc3c(c2)CC2(CCN(C#N)C2)C(=O)N3)c1` (centres unmarked) [Example 112, N-(3-(1-Cyano-2′-oxo-1′,4′-dihydro-2′H-spiro[pyrrolidine-3,3′-quinolin]-6′-yl)phenyl)acetamide], the figure is 0.1 to 1 µM.
As for `CC(=O)Nc1ccc(-c2ccc3c(c2)CC2(CCN(C#N)C2)C(=O)N3)cc1` (centres unmarked) [Example 113, N-(4-(1-Cyano-2′-oxo-1′,4′-dihydro-2′H-spiro[pyrrolidine-3,3′-quinolin]-6′-yl)phenyl)acetamide], the figure is 0.1 to 1 µM; as for `N#CN1CCC2(Cc3cc(-c4ccc(S(=O)(=O)N5CCOCC5)cc4)ccc3NC2=O)C1` (centres unmarked) [Example 116, 6′-(4-(Morpholinosulfonyl)phenyl)-2′-oxo-1′,4′-dihydro-2′H-spiro[pyrrolidine-3,3′-quinoline]-1-carbonitrile], 0.1 to 1 µM; as for `N#CN1CCC2(Cc3cc(-c4cccc(N5CCCCC5)c4)ccc3NC2=O)C1` (centres unmarked) [Example 118, 2′-Oxo-6′-(3-(piperidin-1-yl)phenyl)-1′,4′-dihydro-2′H-spiro[pyrrolidine-3,3′-quinoline]-1-carbonitrile], 0.1 to 1 µM.
Take `CC(=O)Nc1ccccc1-c1ccc2c(c1)CC1(CCN(C#N)C1)C(=O)N2` (centres unmarked) [Example 119, N-(2-(1-Cyano-2′-oxo-1′,4′-dihydro-2′H-spiro[pyrrolidine-3,3′-quinolin]-6′-yl)phenyl)acetamide]: the IC50 was 0.1 to 1 µM.
In the case of `N#CN1CCC2(Cc3cc(-c4ccc(C(=O)N5CCOCC5)cc4)ccc3NC2=O)C1` (centres unmarked) [Example 120, 6′-(4-(Morpholine-4-carbonyl)phenyl)-2′-oxo-1′,4′-dihydro-2′H-spiro[pyrrolidine-3,3′-quinoline]-1-carbonitrile], the IC50 lay within 0.1 to 1 µM.
As for `N#CN1CCC2(Cc3cc(-c4cccc(S(=O)(=O)N5CCOCC5)c4)ccc3NC2=O)C1` (centres unmarked) [Example 121, 6′-(3-(Morpholinosulfonyl)phenyl)-2′-oxo-1′,4′-dihydro-2′H-spiro[pyrrolidine-3,3′-quinoline]-1-carbonitrile], the figure is 0.1 to 1 µM; as for `Cn1cc(-c2ccc3c(c2)CC2(CCN(C#N)C2)C(=O)N3)ccc1=O` (centres unmarked) [Example 122, 6′-(1-Methyl-6-oxo-1,6-dihydropyridin-3-yl)-2′-oxo-1′,4′-dihydro-2′H-spiro[pyrrolidine-3,3′-quinoline]-1-carbonitrile], 1 to 10 µM.
As for `Cc1nc2cc(-c3ccc4c(c3)CC3(CCN(C#N)C3)C(=O)N4)ccc2s1` (centres unmarked) [Example 123, 6′-(2-Methylbenzo[d]thiazol-5-yl)-2′-oxo-1′,4′-dihydro-2′H-spiro[pyrrolidine-3,3′-quinoline]-1-carbonitrile], the figure is 0.1 to 1 µM.
With `Cc1noc(C)c1-c1ccc2c(c1)CC1(CCN(C#N)C1)C(=O)N2` (centres unmarked) [Example 124, 6′-(3,5-Dimethylisoxazol-4-yl)-2′-oxo-1′,4′-dihydro-2′H-spiro[pyrrolidine-3,3′-quinoline]-1-carbonitrile], the IC50 lay in the range of 0.1 to 1 µM.
